Reference: the NIST ThermoML archive (doi:10.1021/je900468u)
Numbers after ± are expanded uncertainties.

Columns and labels:
[1] = refractive index (Na D-line) (dimensionless); xn = mol fraction of the nth substance listed; details: 101 kPa, Liquid, Standard Abbe refractometry
[2] = xn = mol fraction of the nth substance listed; details: 101 kPa, Liquid; for speed of sound: Pulse-echo method
[3] = 101 kPa, Liquid; for speed of sound: Pulse-echo method
[4] = refractive index (Na D-line) (dimensionless); details: 101.33 kPa, Liquid, Standard Abbe refractometry

CC1CCCCC1 [methylcyclohexane] + c1ccccc1
Details	mass density, [2] [kg/m3]	refractive index, [1]	speed of sound, [2] [m/s]
283.15 K, x1 = 0.0504	880.6 ± 0.4	1.50135 ± 0.00072	1359 ± 2
283.15 K, x1 = 0.099	872.4 ± 0.4	1.49548 ± 0.00072	1350 ± 2
283.15 K, x1 = 0.1998	856.9 ± 0.4	1.48438 ± 0.00073	1333 ± 2
283.15 K, x1 = 0.2978	843.4 ± 0.4	1.47501 ± 0.00069	1320 ± 2
283.15 K, x1 = 0.3991	830.7 ± 0.4	1.46578 ± 0.00069	1308 ± 2
283.15 K, x1 = 0.4993	819.5 ± 0.5	1.45783 ± 0.00067	1299 ± 2
283.15 K, x1 = 0.598	809.6 ± 0.5	1.45078 ± 0.00066	1293 ± 2
283.15 K, x1 = 0.6991	800.5 ± 0.5	1.44435 ± 0.00065	1288 ± 2
283.15 K, x1 = 0.7981	792.4 ± 0.5	1.43862 ± 0.00065	1284 ± 2
283.15 K, x1 = 0.8961	784.9 ± 0.6	1.4333 ± 0.00064	1282 ± 2
283.15 K, x1 = 0.9523	781 ± 0.6	1.43058 ± 0.00064	1282 ± 2
283.15 K, x1 = 1	777.9 ± 0.6	1.42833 ± 0.00063	1281 ± 2
298.15 K, x1 = 0.0504	865 ± 0.4	1.49162 ± 0.00072	1289 ± 2
298.15 K, x1 = 0.099	857.1 ± 0.4	1.48594 ± 0.0007	1280 ± 2
298.15 K, x1 = 0.1998	841.9 ± 0.4	1.47509 ± 0.00067	1263 ± 2
298.15 K, x1 = 0.2978	828.8 ± 0.4	1.46597 ± 0.00067	1250 ± 2
298.15 K, x1 = 0.3991	816.5 ± 0.5	1.45706 ± 0.00065	1240 ± 2
298.15 K, x1 = 0.4993	805.7 ± 0.5	1.44934 ± 0.00064	1231 ± 2
298.15 K, x1 = 0.598	796 ± 0.5	1.44247 ± 0.00063	1225 ± 2
298.15 K, x1 = 0.6991	787.2 ± 0.5	1.43623 ± 0.00063	1220 ± 2
298.15 K, x1 = 0.7981	779.3 ± 0.6	1.43061 ± 0.00063	1217 ± 2
298.15 K, x1 = 0.8961	772 ± 0.6	1.42549 ± 0.00063	1216 ± 2
298.15 K, x1 = 0.9523	768.2 ± 0.6	1.42279 ± 0.00063	1215 ± 2
298.15 K, x1 = 1	765.1 ± 0.6	1.42062 ± 0.00063	1215 ± 2

Cc1ccccc1 [toluene]
Details	mass density, [3] [kg/m3]	refractive index, [4]	speed of sound, [3] [m/s]
283.15 K	876.1 ± 0.4	1.50278 ± 0.00068	1371 ± 2
298.15 K	862.2 ± 0.4	1.49399 ± 0.00068	1305 ± 2

Cc1ccccc1 [toluene] + C1CCCCC1
x2 = 0
Details	mass density, [2] [kg/m3]	refractive index, [1]	speed of sound, [2] [m/s]
283.15 K	876.1 ± 0.4	1.50278 ± 0.00068	1371 ± 2
298.15 K	862.2 ± 0.4	1.49399 ± 0.00068	1305 ± 2

Cc1ccccc1 [toluene] + C1CCCCCCC1
298.15 K, x2 = 0
Details	mass density [kg/m3]	refractive index	speed of sound [m/s]
[1]	–	1.49399 ± 0.00068	–
[2]	862.2 ± 0.4	–	1305 ± 2

Cc1ccccc1 [toluene] + CC1CCCCC1
x2 = 0
Details	mass density, [2] [kg/m3]	refractive index, [1]	speed of sound, [2] [m/s]
283.15 K	876.1 ± 0.3	1.50278 ± 0.00066	1371 ± 2
298.15 K	862.2 ± 0.3	1.49399 ± 0.00066	1305 ± 2
